In ChEMBL document CHEMBL4130590, “Mtb PKNA/PKNB Dual Inhibition Provides Selectivity Advantages for Inhibitor Design To Minimize Host Kinase Interactions” (ACS Med Chem Lett, 2017):
Values after ≈ are worked out from the molar mass of the structure shown.

Assays:
[1] = molecular target: T1, Serine/threonine-protein kinase PknB (Mycobacterium tuberculosis, UniProt P9WI81); assay: Inhibition of Mycobacterium tuberculosis PknB (M1 to G279 residues) expressed in Escherichia coli BL21 (DE3) cells using [T-33P]ATP as substrate after 50 mins in presence of GarA by liquid scintillation method
T1 sequence (P9WI81 whole entry): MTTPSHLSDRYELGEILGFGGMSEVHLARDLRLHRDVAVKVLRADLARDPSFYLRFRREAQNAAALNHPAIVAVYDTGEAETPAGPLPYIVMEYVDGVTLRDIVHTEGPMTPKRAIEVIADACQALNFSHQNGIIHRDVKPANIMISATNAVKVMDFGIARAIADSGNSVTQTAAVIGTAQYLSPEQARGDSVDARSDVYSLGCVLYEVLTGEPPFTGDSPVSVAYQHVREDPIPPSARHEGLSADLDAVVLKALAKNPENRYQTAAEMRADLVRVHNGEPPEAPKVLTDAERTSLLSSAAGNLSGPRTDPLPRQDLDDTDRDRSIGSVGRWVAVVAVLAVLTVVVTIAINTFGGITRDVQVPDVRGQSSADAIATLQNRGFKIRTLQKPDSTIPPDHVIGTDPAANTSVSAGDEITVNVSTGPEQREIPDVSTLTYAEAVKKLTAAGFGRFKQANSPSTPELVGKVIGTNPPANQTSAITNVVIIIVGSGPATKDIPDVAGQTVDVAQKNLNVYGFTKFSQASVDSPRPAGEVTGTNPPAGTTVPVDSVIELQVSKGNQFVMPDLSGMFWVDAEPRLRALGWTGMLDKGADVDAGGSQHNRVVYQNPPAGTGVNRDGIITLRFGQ

[2] = system: Mycobacterium tuberculosis; assay: Antibacterial activity against Mycobacterium tuberculosis H37Ra after […] by resazurin reduction assay; type: functional
CDK2/Cyclin A2 = CDK2/Cyclin A2 (Homo sapiens, UniProt P24941); assay: Inhibition of recombinant CDK2/cyclin A (unknown origin) using MAHHRSPRKRAKKK as substrate by pyruvate kinase-lactate dehydrogenase coupled assay; type: protein-complex assay
[3] = molecular target: T2, Serine/threonine-protein kinase PknA (Mycobacterium tuberculosis (strain ATCC 25618 / H37Rv), UniProt P9WI83); assay: Inhibition of Mycobacterium tuberculosis PknA (M1 to A296 residues) expressed in Escherichia coli BL21 (DE3) pLysS cells using [T-33P]ATP as substrate after 120 mins in presence of GarA by liquid scintillation method
T2 sequence (P9WI83 whole entry): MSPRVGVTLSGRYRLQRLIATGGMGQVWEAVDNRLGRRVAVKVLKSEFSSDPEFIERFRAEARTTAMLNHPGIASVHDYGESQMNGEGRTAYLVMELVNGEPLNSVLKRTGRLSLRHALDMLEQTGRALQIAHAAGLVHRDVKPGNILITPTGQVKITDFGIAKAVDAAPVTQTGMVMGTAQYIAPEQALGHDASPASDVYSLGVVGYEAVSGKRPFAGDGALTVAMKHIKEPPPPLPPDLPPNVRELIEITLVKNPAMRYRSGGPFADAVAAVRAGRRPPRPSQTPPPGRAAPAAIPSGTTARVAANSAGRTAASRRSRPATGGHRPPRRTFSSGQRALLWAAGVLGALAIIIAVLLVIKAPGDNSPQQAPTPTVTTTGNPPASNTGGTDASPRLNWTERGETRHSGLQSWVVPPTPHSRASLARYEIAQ

[4] = Selectivity ratio of Ki for recombinant CDK2/cyclin A (unknown origin) to Ki for Mycobacterium tuberculosis PknB (M1 to G279 residues)
[5] = molecular target: Proto-oncogene tyrosine-protein kinase Src (Homo sapiens, UniProt P12931); assay: Inhibition of recombinant SRC (unknown origin) using polyE4Y as substrate by pyruvate kinase-lactate dehydrogenase coupled assay
[6] = molecular target: Glycogen synthase kinase-3 beta (Homo sapiens, UniProt P49841); assay: Inhibition of recombinant GSK3beta (unknown origin) using HSSPHQ(Sp)EDEEE as substrate by pyruvate kinase-lactate dehydrogenase coupled assay
Sequence of Glycogen synthase kinase-3 beta (P49841 whole entry): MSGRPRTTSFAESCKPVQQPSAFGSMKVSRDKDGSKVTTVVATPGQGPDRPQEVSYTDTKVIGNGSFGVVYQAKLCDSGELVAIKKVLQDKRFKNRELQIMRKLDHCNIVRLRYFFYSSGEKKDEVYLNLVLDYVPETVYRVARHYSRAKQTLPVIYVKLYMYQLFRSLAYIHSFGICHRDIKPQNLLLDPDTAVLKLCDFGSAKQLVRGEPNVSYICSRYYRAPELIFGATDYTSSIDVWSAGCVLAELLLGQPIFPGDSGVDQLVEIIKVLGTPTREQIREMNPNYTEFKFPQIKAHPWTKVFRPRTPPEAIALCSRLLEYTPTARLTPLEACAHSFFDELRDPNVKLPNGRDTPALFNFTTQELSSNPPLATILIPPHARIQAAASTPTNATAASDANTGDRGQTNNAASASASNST

Sequence of Proto-oncogene tyrosine-protein kinase Src (P12931 2-536 limits assumed): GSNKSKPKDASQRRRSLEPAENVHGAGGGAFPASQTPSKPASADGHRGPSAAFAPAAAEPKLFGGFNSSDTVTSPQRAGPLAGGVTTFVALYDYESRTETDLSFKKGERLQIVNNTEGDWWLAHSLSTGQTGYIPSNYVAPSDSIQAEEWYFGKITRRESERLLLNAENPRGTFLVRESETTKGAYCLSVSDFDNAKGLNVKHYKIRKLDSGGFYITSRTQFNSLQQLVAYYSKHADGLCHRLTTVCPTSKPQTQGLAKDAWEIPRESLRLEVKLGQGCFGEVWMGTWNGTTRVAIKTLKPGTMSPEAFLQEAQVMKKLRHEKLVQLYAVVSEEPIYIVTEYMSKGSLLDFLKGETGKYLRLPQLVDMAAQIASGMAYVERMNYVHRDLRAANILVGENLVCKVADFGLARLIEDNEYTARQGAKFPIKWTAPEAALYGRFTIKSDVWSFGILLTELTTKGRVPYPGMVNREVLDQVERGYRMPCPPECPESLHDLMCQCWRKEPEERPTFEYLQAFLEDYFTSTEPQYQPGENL

Compound | Ki [1] [µM] | Ki [3] [µM] | other results
NS(=O)(=O)c1ccc(-c2ncc(Cl)c(Nc3cc(C4CC4)[nH]n3)n2)s1 | < 0.0013 | 0.009 | MIC90 [2]: 6.25 µM (≈ 2.48 µg/mL); Ki (CDK2/Cyclin A2): 0.017 µM; Ratio Ki [4]: > 13
Clc1ccc2nc(N3CCCCCC3)nc(Nc3cc(C4CC4)[nH]n3)c2c1 | 0.15 | > 33 | MIC90 [2]: 33 µM (≈ 12.6 µg/mL)
O=C1CCN(c2nc(Nc3cc(C4CC4)[nH]n3)c3cc(Cl)ccc3n2)CCN1 | 0.19 |  | 
Cc1ccc2nc(N3CCCCCC3)nc(Nc3cc(C4CC4)[nH]n3)c2c1 | 0.098 | > 33 | 
NS(=O)(=O)c1cccc(-c2ncc(Cl)c(Nc3cc(C4CC4)[nH]n3)n2)c1 | 0.017 | < 0.008 | MIC90 [2]: 8.3 µM (≈ 3.24 µg/mL)
Fc1ccc2nc(N3CCCCCC3)nc(Nc3cc(C4CC4)[nH]n3)c2c1 | 0.081 | > 33 | 
NC(=O)c1cccc(-c2nc(Nc3cc(C4CC4)[nH]n3)c3cc(Cl)ccc3n2)c1 | 0.015 | > 4 | 
OCc1cccc(-c2nc(Nc3cc(C4CC4)[nH]n3)c3cc(Cl)ccc3n2)c1 | 0.023 | 2.3 | 
Clc1ccc2nc(NC3CCC3)nc(Nc3cc(C4CC4)[nH]n3)c2c1 | 0.072 |  | 
O=C(c1ccccc1)N1CCN(c2nc(Nc3cc(C4CC4)[nH]n3)c3cc(Cl)ccc3n2)CC1 | 0.31 |  | 
NS(=O)(=O)c1cccc(-c2nc(Nc3cc(C4CC4)[nH]n3)c3cc(Cl)ccc3n2)c1 | 0.006 | < 0.008 | 
NS(=O)(=O)c1ccc(-c2ncc(F)c(Nc3cc(C4CC4)[nH]n3)n2)s1 | < 0.001 | 0.012 | MIC90 [2]: 3.1 µM (≈ 1.18 µg/mL)
Clc1ccc2nc(N3CCCOCC3)nc(Nc3cc(C4CC4)[nH]n3)c2c1 | 0.15 |  | 
NC(=O)Cc1ccc(-c2nc(Nc3cc(C4CC4)[nH]n3)c3cc(Cl)ccc3n2)cc1 | 0.023 | 1.8 | 
Clc1ccc2nc(N3CCCNCC3)nc(Nc3cc(C4CC4)[nH]n3)c2c1 | 0.96 |  | 
NS(=O)(=O)c1ccc(-c2nccc(Nc3cc(C4CC4)[nH]n3)n2)s1 | 0.004 | 0.018 | MIC90 [2]: 4.2 µM (≈ 1.52 µg/mL); Ki (CDK2/Cyclin A2): 0.007 µM; Ratio Ki [4]: 2
COc1ccc2nc(N3CCCCCC3)nc(Nc3cc(C4CC4)[nH]n3)c2c1 | 0.082 | > 33 | 
NS(=O)(=O)c1ccc(-c2nc(Nc3cc(C4CC4)[nH]n3)c3cc(Cl)ccc3n2)s1 | < 0.001 | < 0.008 | 

Compound | Ki [1] [µM] | Ki [3] [µM] | other results
Cc1cnc(-c2ccc(S(N)(=O)=O)s2)nc1Nc1cc(C2CC2)[nH]n1 | 0.004 | 0.018 | MIC90 [2]: 4.7 µM (≈ 1.77 µg/mL)
NS(=O)(=O)c1ccc(-c2nc(Nc3cc(C4CC4)[nH]n3)c3cc(Cl)ccc3n2)cc1 | 0.024 | 0.022 | 
N#Cc1ccc(-c2nc(Nc3cc(C4CC4)[nH]n3)c3ccccc3n2)cc1 | 0.046 |  | Ki [5]: 0.018 µM; Ki [6]: 0.07 µM; Ki (CDK2/Cyclin A2): 0.14 µM
CN1CCN(c2nc(Nc3cc(C4CC4)[nH]n3)c3cc(Cl)ccc3n2)CCC1=O | 0.31 |  | 
N#CCc1cccc(-c2nc(Nc3cc(C4CC4)[nH]n3)c3cc(Cl)ccc3n2)c1 | 0.038 |  | 
COC(=O)N1CCCN(c2nc(Nc3cc(C4CC4)[nH]n3)c3cc(Cl)ccc3n2)CC1 | 0.23 |  | 
CC(C)N1CCN(c2nc(Nc3cc(C4CC4)[nH]n3)c3cc(Cl)ccc3n2)CC1 | 1.4 |  | 
N#CCc1ccc(-c2nc(Nc3cc(C4CC4)[nH]n3)c3cc(Cl)ccc3n2)cc1 | 0.005 | > 4 | 
Clc1ccc2nc(N3CCNCC3)nc(Nc3cc(C4CC4)[nH]n3)c2c1 | 0.99 |  | 
N#Cc1ccc(-c2nc(Nc3cc(C4CC4)[nH]n3)c3cc(Cl)ccc3n2)cc1 | 0.088 | > 4 | Ki [5]: 0.71 µM; Ki [6]: 0.19 µM; Ki (CDK2/Cyclin A2): 0.17 µM
N#Cc1cccc(-c2nc(Nc3cc(C4CC4)[nH]n3)c3ccccc3n2)c1 | 0.04 |  | Ki [5]: 0.022 µM; Ki [6]: 0.009 µM; Ki (CDK2/Cyclin A2): 0.011 µM
CC(=O)N1CCCN(c2nc(Nc3cc(C4CC4)[nH]n3)c3cc(Cl)ccc3n2)CC1 | 0.15 |  | 
N#Cc1cccc(-c2nc(Nc3cc(C4CC4)[nH]n3)c3cc(Cl)ccc3n2)c1 | 0.05 | > 4 | Ki [5]: 0.2 µM; Ki [6]: > 4 µM; Ki (CDK2/Cyclin A2): 0.75 µM
NC(=O)c1ccc(-c2nc(Nc3cc(C4CC4)[nH]n3)c3cc(Cl)ccc3n2)cc1 | 0.029 | > 4 | 
NS(=O)(=O)c1ccc(-c2ncc(Cl)c(Nc3cc(C4CC4)[nH]n3)n2)cc1 | 0.013 | 2.9 | MIC90 [2]: > 100 µM
Clc1ccc2nc(-c3ccccc3)nc(Nc3cc(C4CC4)[nH]n3)c2c1 | 0.06 to 0.069 | > 4 | 
Cc1cnc(-c2ccc(S(N)(=O)=O)s2)nc1Nc1cc(C2CC2)n(C)n1 | > 4 | > 4 | MIC90 [2]: > 100 µM
